The values below come from patent US6734179B2, “Benzothiazoles” (Hoffmann-La Roche Inc., priority 2001, dated 2004).

The target in series [1] is T1, human adenosine A2A receptor (Homo sapiens, UniProt P29274).
T1 construct: expressed in transfected cells; host or cells: CHO cells, semliki forest virus expression system; membrane preparation
The experiment in a line: [3H]-SCH-58261 binding assay, human adenosine A2A receptor expressed in CHO cell membranes (SPA). The settings on record: [3H]-SCH-58261 1 nM, Ki by Cheng-Prussoff equation, read-out: hA2 (pKi) (converted). Here is the method: Human Adenosine A2A Receptor
The human adenosine A2A receptor was recombinantly expressed in chinese hamster ovary (CHO) cells using the semliki forest virus expression system. Cells were harvested, washed twice by centrifugation, homogenised and again washed by centrifugation. The final washed membrane pellet was suspended in a Tris (50 mM) buffer containing 120 mM NaCl, 5 mM KCl, 2 mM CaCl2 and 10 mM MgCl2 (pH 7.4) (buffer A). The [^3H]-SCH-58261 (Dionisotti et al., 1997, Br J Pharmacol 121, 353; 1 nM) binding assay was carried out in 96-well plates in the presence of 2.5 μg of membrane protein, 0.5 mg of Ysi-poly-1-lysine SPA beads and 0.1 U adenosine deaminase in a final volume of 200 μl of buffer A. Non-specific binding was defined using xanthine amine congener (XAC; 2 μM). Compounds were tested at 10 concentrations from 10 μM-0.3 nM. All assays were conducted in duplicate and repeated at least two times. Assay plates were incubated for 1 hour at room temperature before centrifugation and then bound ligand determined using a Packard Topcount scintillation counter. IC50 values were calculated using a non-linear curve fitting program and Ki values calculated using the Cheng-Prussoff equation.

As a reminder, the melting point is the temperature of the solid-liquid transition.

T1 sequence (P29274 whole entry): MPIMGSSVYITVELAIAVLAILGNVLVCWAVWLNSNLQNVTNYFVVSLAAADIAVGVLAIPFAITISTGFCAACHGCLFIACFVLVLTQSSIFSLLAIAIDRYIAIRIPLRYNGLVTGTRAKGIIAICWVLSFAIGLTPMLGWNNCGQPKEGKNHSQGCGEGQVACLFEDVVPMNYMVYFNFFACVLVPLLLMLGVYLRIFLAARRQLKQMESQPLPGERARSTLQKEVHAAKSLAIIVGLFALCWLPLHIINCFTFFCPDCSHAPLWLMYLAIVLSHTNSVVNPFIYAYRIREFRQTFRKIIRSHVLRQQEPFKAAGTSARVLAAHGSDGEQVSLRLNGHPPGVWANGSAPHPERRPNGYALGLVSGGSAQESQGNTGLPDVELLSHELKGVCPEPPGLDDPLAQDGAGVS

In turn, `COc1ccc(C2CCCCC2)c2sc(NC(=O)c3ccc(F)cc3)nc12` [Example 23, N-(7-Cyclohexyl-4-methoxy-benzothiazol-2-yl)-4-fluoro-benzamide] registered a melting point of 192 to 195 °C. Further, the Ki in series [1] is 0.2 nM.
